In ChEMBL document CHEMBL1141758, “Gesashidine A, a beta-carboline alkaloid with an imidazole ring from a Thorectidae sponge” (J Nat Prod, 2005) one finds Activity, MIC and IC50 data, which are given here for three compounds.

Activity calls are given as the source filed them. The calls are words filed in the database; no cut-off is given here.

One experiment relates to Micrococcus luteus. The experiment is described as follows: Antimicrobial activity against Micrococcus luteus. In kind it is functional.
For a further experiment, the system named is KB. The experiment can be described thus: Cytotoxicity against human KB cells. It is filed as functional, cell-based.
A further experiment concerns L1210. The experiment can be described thus: Cytotoxicity against mouse L1210 cells. It is filed as functional, cell-based.

`CSc1c(C(=O)c2nc(C(=O)[O-])cc3c2[nH]c2ccc(O)cc23)n(C)c[n+]1C`: in the experiment with Micrococcus luteus, the result was inactive.

For `CSc1c(Cc2nc(C(=O)[O-])cc3c2[nH]c2ccc(O)cc23)n(C)c[n+]1C`, the outcome in the experiment on Micrococcus luteus was inactive.

For `CSc1c(Cc2nccc3c2[nH]c2ccc(O)cc23)n(C)c[n+]1C` [GESASHIDINE A], in the experiment with Micrococcus luteus, inhibition of growth (MIC) required 16.6 µg/mL. The IC50 in the experiment on KB and in the experiment with L1210 was more than 10 µg/mL in each case.

For orientation: MIC means the lowest concentration found to suppress growth. Higher therefore signals a less susceptible organism. One may read the IC50 as the concentration that gives 50% inhibition. Low readings indicate inhibition by little substance, high ones a need for much substance.
